Broadly, the % inhibition is the relative decrease from the control value, in per cent. As usually defined, the IC50 is the point on the concentration scale where inhibition reaches its midpoint. The term Tmax denotes the time at which the peak concentration occurs. Usually Cmax stands for the maximum level reached in the sampled fluid or tissue. A word on the microsomal CLint: it is the capacity of the preparation to metabolise the compound, expressed as a volume cleared per time. A lower microsomal CLint goes with slow turnover.

Where two headings read alike, the source gives them in different places.

This note sets out measurements from paper PMC9916658, “Design and Synthesis of New Quinazolin-4-one Derivatives with Negative mGlu7 Receptor Modulation Activity and Antipsychotic-Like Properties” (International Journal of Molecular Sciences, 2023).

A short description of series [1]: Pharmacokinetics and brain uptake in mice after i.p. administration. It is filed as in vivo, mouse (Albino Swiss). As to conditions: 10 mg/kg i.p.; for AUC(0-t) / Tmax / half-life / Cmax: ip. The procedure:
Compounds were administered to mice at a dose of 10 mg/kg i.p. Plasma and tissue samples were collected at 0.25, 0.50, 1.0, 2.0, 4.0, 6.0, and 24 h. Plasma and tissue samples from all drug-treated animals were thawed at room temperature prior to use. The standard protocol for sample preparation was used: 200 μL of acetonitrile was added to the Eppendorf tubes with 50 μL of studied plasma samples or tissue homogenate. Samples were mixed for 5 min on a mixer at 25 °C and 1400 rpm. The tubes were then centrifuged at 2000× g for 15 min at 4 °C. A total of 180 μL of each supernatant was transferred to a plate well. Finally, each sample was injected into the LC–MS column. Calibration curve serial dilution method: Plasma was spiked with a standard at different concentrations. Acetonitrile was added. After mixing and centrifugation, the supernatant was collected.
Chromatographic conditions. Plasma and tissue samples from all drug-treated animals at selected time points were analyzed using a previously developed nonvalidated LC–MS/MS method. […] The LC–MS analysis was carried out on a Bruker amaZon SL mass spectrometer using the positive/negative ion ESI mode. Chromatographic separation was achieved on an Ascentis Express C18 column (5 cm × 2.1 mm, 2.7 μM, Supelco Technologies) at room temperature with a thermostatted column oven. A gradient elution of eluents A (acetonitrile (LiChrosolv, Reag. Ph Eur) + 0.1% formic acid (Sigma Aldrich, 98–100%)) and B (water + 0.1% formic acid) were used for separation. The flow rate was set at 1 mL/min. The injection volume was 20 μL, and the time of injection was 4 min.
Mass spectrometric conditions. An ion trap mass spectrometer (Bruker amaZon SL, Bruker, Bremen, Germany) was equipped with an electrospray source operating in the positive/negative ion mode. Data were collected and processed using Bruker Quant Analysis (Bruker, Bremen, Germany) software. A quantification of the analytes was performed in the SIM mode.

The nature of series [2]: Metabolic stability in mouse microsomal fraction. It is filed as in vitro ADME. As to conditions: for MML (metabolic stability liver microsome mouse): 1 µM, mouse microsomes 0.3 mg/mL, NADPH-regenerating system; for microsomal CLint at 1 µM: pH 7.4, mouse liver microsomes. The procedure: A metabolic stability assay was performed using a mouse microsomal fraction (phase I of metabolism) obtained from XenoTech (Kansas City, MO, USA). Compounds for metabolic stability testing were prepared as 10 mM stock solutions in DMSO. Compounds were incubated in triplicate at a 1 µM initial concentration with the microsomal fraction in the presence of NRS (NADPH-regenerating system, 1.3 mM). The final microsomal incubation (0.3 mg/mL) contained the components mentioned below in a pH 7.4 phosphate buffer. Control incubations were conducted without cofactors. The reference compound verapamil was used as a positive control. Incubations were carried out for 1 h on 96-well plates using a heated (+37 °C) orbital shaker (350 rpm). After incubation, the reaction was quenched through the addition of cold acetonitrile. The plate containing the samples was centrifuged at 2000 rpm for 15 min at 4 °C. The supernatants were analyzed using LC–MS.
The HPLC–MS consisted of a Dionex, Ultimate 3000 HPLC, and a Bruker Daltonics amaZon SL mass spectrometer (ESI-IT). The conditions were as follows: Column HPLC Ascentis Express C18 (5 cm × 2.1 mm, 2.7 µm) and an injection volume of 20 µL. An acetonitrile gradient was used with 0.1% formic acid in water at a constant flow rate of 1 mL/min. The programming was as follows: 0–0.5 min 5% ACN, 0.5–3.0 increase of 5–95%, 3.0–3.3 remaining at 95% ACN, 3.3–3.4 min decrease of 95–5% ACN, and 3.4–4.0 min 5% ACN. Samples were analyzed in a single-ion monitoring scan mode in positive mode. The conditions of the main parameters were as follows: a trap drive of 48.2, capillary exit voltage of 140.0 V, dry temperature (set) of 300 °C, nebulizer pressure (set) of 40.00 psi, dry gas flow (set) of 9.00 L/min HV capillary voltage of −4500 V, HV end-plate offset voltage of −500 V.
The percent loss of compounds was calculated through the normalization of the peak area against time 0, where the peak area at T0 was 100%. The elimination rate constant (h) was determined from the plot of ln (percent loss of compound) as a time function and equal to the minor value of the linear curve slope.

For series [3], the target named is T1, recombinant human mGlu7 receptor (FAST-0154C) (Homo sapiens, UniProt Q14831).
T1 construct: host or cells: CHO-K1
T1 sequence (Q14831 35-915): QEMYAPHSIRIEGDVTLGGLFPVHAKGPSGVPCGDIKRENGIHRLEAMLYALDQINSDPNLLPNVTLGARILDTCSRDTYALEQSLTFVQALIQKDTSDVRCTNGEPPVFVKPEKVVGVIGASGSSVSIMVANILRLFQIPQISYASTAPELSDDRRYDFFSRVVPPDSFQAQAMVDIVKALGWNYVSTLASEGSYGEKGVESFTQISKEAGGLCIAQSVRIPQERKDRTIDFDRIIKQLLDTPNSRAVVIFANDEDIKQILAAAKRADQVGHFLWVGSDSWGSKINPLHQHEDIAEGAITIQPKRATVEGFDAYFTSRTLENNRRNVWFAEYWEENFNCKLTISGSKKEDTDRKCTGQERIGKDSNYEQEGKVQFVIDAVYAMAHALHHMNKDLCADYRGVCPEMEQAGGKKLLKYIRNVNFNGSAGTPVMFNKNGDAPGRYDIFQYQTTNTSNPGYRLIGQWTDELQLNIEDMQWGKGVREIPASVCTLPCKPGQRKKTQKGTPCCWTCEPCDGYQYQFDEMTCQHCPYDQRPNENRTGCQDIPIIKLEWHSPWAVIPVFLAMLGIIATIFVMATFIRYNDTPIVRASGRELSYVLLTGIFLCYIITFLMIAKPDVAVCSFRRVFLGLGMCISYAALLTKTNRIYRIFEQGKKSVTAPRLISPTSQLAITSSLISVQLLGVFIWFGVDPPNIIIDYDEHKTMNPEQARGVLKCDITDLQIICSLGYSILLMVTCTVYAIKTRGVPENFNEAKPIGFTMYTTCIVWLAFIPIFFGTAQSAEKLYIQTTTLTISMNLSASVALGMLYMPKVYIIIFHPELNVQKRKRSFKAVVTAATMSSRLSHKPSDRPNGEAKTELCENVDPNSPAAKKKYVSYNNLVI
The series is described as follows: NAM mGlu7 activity on CHO-K1 cell line, cAMP HTRF (EuroscreenFast protocol). It is filed as cell-based. As to conditions: CHO-K1 human mGlu7, agonist L-AP4 at EC80; for % inhibition at maximal concentration: range 1 nM – 25 µM; for IC50: read-out: IC50 (CHO-K1, Figure S4). An excerpt:
with inducible expression of human mGlu7 receptor. […]
2.2. NAM mGlu7 receptor activity on CHO-K1 cell line according to EuroscreenFast protocol
ALX-065 and ALX-171 were testing for negative allosteric modulator (NAM) activity on alternative […]
mGlu7 cell line (recombinant human mGlu7 receptor (FAST-0154C) using cAMP HTRF functional assay) […]
by EuroscreenFast company according to the provided methodology.
Receptor Accession Cell line Reference Reference
Number agonist antagonist
Compounds were tested for NAM activity at the human mGlu7 receptor (FAST-0154C) in dose […]
response and in duplicates (range concentration: 1 nM – 25 µM) […]
cAMP HTRF assay for Gi coupled receptor
CHO-K1 cells expressing recombinant human mGlu7 receptor (FAST-0154C) grown prior to the test […]
inmedia without antibiotic are detached by gentle flushing with PBS-EDTA (5 mM EDTA), recovered […]
by centrifugation and resuspended in assay buffer (KRH: 5 mM KCl, 1.25 mM MgSO4, 124 mM NaCl, […]
25 mM HEPES, 13.3 mM Glucose, 1.25 mM KH2PO4, 1.45 mM CaCl2, 0.5 g/L BSA, supplemented with 1 […]
Dose response curves are performed in parallel with the reference compounds.
For antagonist/NAM test (96 well): 12 µl of cells are mixed with 6 µl of the test compound at increasing concentrations and then incubated 10 min. Thereafter 6 µl of the mix of the forskolin and reference agonist is added at a final concentration corresponding to the historical EC80. The plates are then incubated for 30 min at room temperature. After addition of the lysis buffer and 1 hour incubation, cAMP concentrations are estimated, according to the manufacturer specification, with the HTRF kit. […]

The mark [4] stands for this setting: mouse Albino Swiss, brain, read-out: AUC0-t, brain.
The mark [5] stands for this setting: mouse Albino Swiss, plasma, read-out: AUC0-t, plasma.
The mark [6] stands for this setting: Albino Swiss, mouse, plasma and brain, mice, read-out: Tmax (plasma and brain) (converted).
[7] abbreviates: mouse Albino Swiss, brain, read-out: T1/2, brain (converted).
Setting [8] is: mouse Albino Swiss, brain, read-out: Tmax, brain.
Setting [9] is: mouse Albino Swiss, plasma, read-out: T1/2, plasma (converted).
The mark [10] stands for this setting: mouse Albino Swiss, plasma, read-out: Tmax, plasma.

Take `CCc1nc2c(o1)CC(c1ccc(C)cc1C)CC2=O` (centres unmarked) [ADX71743, reference compound]: the AUC(0-t) in series [1] (setting [4]) was 2.27 µM·h. For the same compound, in series [1] (setting [5]), the AUC(0-t) amounted to 1.9 µM·h. The “Cmax, brain” value in series [1] (mouse Albino Swiss, brain) is on record as 3.38 µM/L. The “MML (metabolic stability liver microsome mouse)” value (“MML” for short) in series [2] worked out at 0.01 % remaining after 60 min. In series [3], the “% inhibition at maximal concentration” value came out at 62.42% and the IC50 came to 0.43 µM.

Consider `Cn1c(-c2ccccc2Cl)nc2ccc(-c3ccccc3)cc2c1=O` [ALX-065, 2-(2-chlorophenyl)-3-methyl-6-phenylquinazolin-4(3H)-one], for which the Tmax in series [1] (setting [6]), in series [1] (setting [8]) and in series [1] (setting [10]) was 15 min throughout. Also, the AUC(0-t) in series [1] (setting [4]) stood at 1.32 µM·h; in series [1] (setting [5]), 1.99 µM·h. Also, the half-life was 29.4 min in series [1] (setting [7]) and 78.6 min in series [1] (setting [9]). The same compound came in with a Cmax in series [1] (mouse Albino Swiss, plasma) of 2.28 µM. In series [1] (mouse Albino Swiss, brain), the “Cmax, brain” value amounted to 1.81 µM/L. In addition, in series [2], the “MML” value came to 0.81 % remaining after 60 min. Moreover, in series [2], the microsomal CLint at 1 µM stood at 268 µL/min/mg. In addition, in series [3], the “% inhibition at maximal concentration” value was found to be 99.62%. In addition, the IC50 in series [3] was 3.74 µM.

As to `COc1cccc(-c2ccc3nc(-c4ccccc4Cl)n(C)c(=O)c3c2)c1OC` [ALX-171, 2-(2-chlorophenyl)-6-(2,3-dimethoxyphenyl)-3-methylquinazolin-4(3H)-one], the Tmax in series [1] (setting [6]) was 15 min; in series [1] (setting [8]) it was 15 min; in series [1] (setting [10]), 30 min. Besides, the AUC(0-t) in series [1] (setting [4]) was 13.8 µM·h; in series [1] (setting [5]), 13.4 µM·h. In addition, the values for the half-life in series [1] (setting [7]) and in series [1] (setting [9]) were 334 min and 312 min, respectively. Moreover, the highest level in series [1] (mouse Albino Swiss, plasma) (Cmax) was 4.46 µM. Further, the “Cmax, brain” value in series [1] (mouse Albino Swiss, brain) is recorded as 2.52 µM/L. Also, the “MML” value in series [2] came to 54.01 % remaining after 60 min. For the same compound, the microsomal CLint at 1 µM in series [2] turned out to be 34.2 µL/min/mg. Moreover, the “% inhibition at maximal concentration” value in series [3] was found to be 105.21%. In addition, in series [3], the IC50 amounted to 5.6 µM.
